Data on 26 compounds can be found in patent US9034921B2, “Diphenylmethane derivatives as SGLT2 inhibitors” (GREEN CROSS CORPORATION, priority 2011, dated 2015).

The target of this test is human SGLT2 (Homo sapiens (Human), UniProt P31639). Nature of the test: Inhibitory effects on human SGLT2 activities (14C-AMG uptake, sodium-dependent glucose transport assay). In kind it is cell-based. To be noted: CHO cells stably expressing hSGLT2, 37° C., 2 h, single determinations. The gist of the method:
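CHO cells stably expressing hSGLT2 were preincubated 10 min at 37 °C in choline (Na+-free) buffer, then exposed 2 h at 37 °C to compound in Na+ uptake buffer with 8 μM 14C-AMG and 1 mM unlabeled AMG. Radioactivity was scintillation counted; IC50 came from nonlinear regression.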

pIC50: −log10 of the molar value. Counter-ions that a name gives are not always drawn.

What is called pIC50 is −log10 of the IC50, conventionally taken in molar units. A low value points to a large IC50.

Sequence of human SGLT2 (P31639 whole entry): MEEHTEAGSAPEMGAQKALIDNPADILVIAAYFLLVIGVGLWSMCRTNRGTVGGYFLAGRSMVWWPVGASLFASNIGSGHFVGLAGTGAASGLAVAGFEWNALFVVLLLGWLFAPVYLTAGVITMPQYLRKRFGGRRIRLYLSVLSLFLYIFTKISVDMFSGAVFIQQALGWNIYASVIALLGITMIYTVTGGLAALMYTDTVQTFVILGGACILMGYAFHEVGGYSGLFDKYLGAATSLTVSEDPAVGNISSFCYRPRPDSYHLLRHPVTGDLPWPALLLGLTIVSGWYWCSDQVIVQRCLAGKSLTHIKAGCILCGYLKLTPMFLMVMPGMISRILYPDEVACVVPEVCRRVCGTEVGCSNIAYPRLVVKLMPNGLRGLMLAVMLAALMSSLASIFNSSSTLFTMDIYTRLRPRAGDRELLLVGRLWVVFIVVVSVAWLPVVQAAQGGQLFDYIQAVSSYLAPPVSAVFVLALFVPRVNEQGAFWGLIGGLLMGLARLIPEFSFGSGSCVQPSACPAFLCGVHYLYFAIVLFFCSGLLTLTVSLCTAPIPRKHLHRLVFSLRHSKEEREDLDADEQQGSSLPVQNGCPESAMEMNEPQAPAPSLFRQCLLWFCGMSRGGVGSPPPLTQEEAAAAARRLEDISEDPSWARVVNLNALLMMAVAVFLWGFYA

In the case of `OC[C@H]1O[C@@H](c2cc(Cc3ccc(C4CC4)cc3)c(Cl)c3c2OCO3)[C@H](O)[C@@H](O)[C@@H]1O` [Example E158, (2S,3R,4R,5S,6R)-2-(7-Chloro-6-(4-cyclopropylbenzyl)benzo[d][1,3]dioxol-4-yl)-6-(hydroxymethyl)tetrahydro-2H-pyran-3,4,5-triol], the negative logarithm of the IC50 (pIC50) is 9.44.

`CC(C)c1ccc(Cc2cc([C@@H]3O[C@H](CO)[C@@H](O)[C@H](O)[C@H]3O)c3c(c2Cl)OCO3)cc1` [Example E159, (2S,3R,4R,5S,6R)-2-(7-Chloro-6-(4-isopropylbenzyl)benzo[d][1,3]dioxol-4-yl)-6-(hydroxymethyl)tetrahydro-2H-pyran-3,4,5-triol] had a pIC50 of 9.06. This pIC50 is 0.38 log units lower than that of the compound before.

As to `COc1ccc(Cc2cc([C@@H]3O[C@H](CO)[C@@H](O)[C@H](O)[C@H]3O)c3c(c2Cl)OCO3)cc1` [Example E161, (2S,3R,4R,5S,6R)-2-(7-Chloro-6-(4-methoxybenzyl)benzo[d][1,3]dioxol-4-yl)-6-(hydroxymethyl)tetrahydro-2H-pyran-3,4,5-triol], the pIC50 was 8.94.

In the case of `CCc1ccc(Cc2cc([C@@H]3O[C@H](CO)[C@@H](O)[C@H](O)[C@H]3O)c3c(c2Cl)OCO3)cc1` [Example E162, (2S,3R,4R,5S,6R)-2-(7-Chloro-6-(4-ethylbenzyl)benzo[d][1,3]dioxol-4-yl)-6-(hydroxymethyl)tetrahydro-2H-pyran-3,4,5-triol], the pIC50 was 9.39.

As to `OC[C@H]1O[C@@H](c2cc(Cc3ccc(C4CC4)cc3)c(Cl)c3c2OCCO3)[C@H](O)[C@@H](O)[C@@H]1O` [Example E163, (2S,3R,4R,5S,6R)-2-(8-Chloro-7-(4-cyclopropylbenzyl)-2,3-dihydrobenzo[b][1,4]dioxin-5-yl)-6-(hydroxymethyl)tetrahydro-2H-pyran-3,4,5-triol], the pIC50 is 9.19.

`CCOc1ccc(Cc2cc([C@@H]3O[C@H](CO)[C@@H](O)[C@H](O)[C@H]3O)c3c(c2Cl)OCCCO3)cc1` [Example E164, (2S,3R,4R,5S,6R)-2-(9-Chloro-8-(4-ethoxybenzyl)-3,4-dihydro-2H-benzo[b][1,4]dioxepin-6-yl)-6-(hydroxymethyl)tetrahydro-2H-pyran-3,4,5-triol] had a pIC50 of 8.89.

Take `CCc1ccc(Cc2cc([C@@H]3O[C@H](CO)[C@@H](O)[C@H](O)[C@H]3O)c3c(c2Cl)OCCCO3)cc1` [Example E165, (2S,3R,4R,5S,6R)-2-(9-Chloro-8-(4-ethylbenzyl)-3,4-dihydro-2H-benzo[b][1,4]dioxepin-6-yl)-6-(hydroxymethyl)tetrahydro-2H-pyran-3,4,5-triol]: the pIC50 is 8.97.

`OC[C@H]1O[C@@H](c2cc(Cc3ccccc3)c(Cl)c3c2CCO3)[C@H](O)[C@@H](O)[C@@H]1O` [Example E166, (2S,3R,4R,5S,6R)-2-(6-Benzyl-7-chloro-2,3-dihydrobenzofuran-4-yl)-6-(hydroxymethyl)tetrahydro-2H-pyran-3,4,5-triol] showed a negative logarithm of the IC50 (pIC50) of 8.37.

Turning to `CC(=O)c1ccc(Cc2cc([C@@H]3O[C@H](CO)[C@@H](O)[C@H](O)[C@H]3O)c3c(c2Cl)OCC3)cc1` [Example E168, 1-(4-((7-Chloro-4-((2S,3R,4R,5S,6R)-3,4,5-trihydroxy-6-(hydroxymethyl)tetrahydro-2H-pyran-2-yl)-2,3-dihydrobenzofuran-6-yl)methyl)phenyl)ethanone], the pIC50 is 9.02. This pIC50 is 0.65 log units higher than that of the compound before.

As for `CC(O)c1ccc(Cc2cc([C@@H]3O[C@H](CO)[C@@H](O)[C@H](O)[C@H]3O)c3c(c2Cl)OCC3)cc1` (stereo partly drawn) [Example E169, (2S,3R,4R,5S,6R)-2-(7-Chloro-6-(4-(1-hydroxyethyl)benzyl)-2,3-dihydrobenzofuran-4-yl)-6-(hydroxymethyl)tetrahydro-2H-pyran-3,4,5-triol], the pIC50 was 8.67.

Consider `CC(F)c1ccc(Cc2cc([C@@H]3O[C@H](CO)[C@@H](O)[C@H](O)[C@H]3O)c3c(c2Cl)OCC3)cc1` (stereo partly drawn) [Example E170, (2S,3R,4R,5S,6R)-2-(7-Chloro-6-(4-(1-fluoroethyl)benzyl)-2,3-dihydrobenzofuran-4-yl)-6-(hydroxymethyl)tetrahydro-2H-pyran-3,4,5-triol], for which the pIC50 was 8.84.

For `C=Cc1ccc(Cc2cc([C@@H]3O[C@H](CO)[C@@H](O)[C@H](O)[C@H]3O)c3c(c2Cl)OCC3)cc1` [Example E171, (2S,3R,4R,5S,6R)-2-(7-Chloro-6-(4-vinylbenzyl)-2,3-dihydrobenzofuran-4-yl)-6-(hydroxymethyl)tetrahydro-2H-pyran-3,4,5-triol], the negative logarithm of the IC50 (pIC50) was 9.44.

`OC[C@H]1O[C@@H](c2cc(Cc3ccc(C4CC4)cc3)c(Cl)c3c2CCO3)[C@H](O)[C@@H](O)[C@@H]1O` [Example E172, (2S,3R,4R,5S,6R)-2-(7-Chloro-6-(4-cyclopropylbenzyl)-2,3-dihydrobenzofuran-4-yl)-6-(hydroxymethyl)tetrahydro-2H-pyran-3,4,5-triol] had a negative logarithm of the IC50 (pIC50) of 9.33.

`OC[C@H]1O[C@@H](c2cc(Cc3ccc(C4CC4)cc3)c(Cl)c3ccoc23)[C@H](O)[C@@H](O)[C@@H]1O` [Example E173, (2S,3R,4R,5S,6R)-2-(4-Chloro-5-(4-cyclopropylbenzyl)benzofuran-7-yl)-6-(hydroxymethyl)tetrahydro-2H-pyran-3,4,5-triol] had a pIC50 of 7.74.

The compound `CCCc1ccc(Cc2cc([C@@H]3O[C@H](CO)[C@@H](O)[C@H](O)[C@H]3O)c3occc3c2Cl)cc1` [Example E174, (2S,3R,4R,5S,6R)-2-(4-Chloro-5-(4-propylbenzyl)benzofuran-7-yl)-6-(hydroxymethyl)tetrahydro-2H-pyran-3,4,5-triol] showed a negative-log IC50 (pIC50) of 6.24.

On to `CC(C)(O)c1ccc(Cc2cc([C@@H]3O[C@H](CO)[C@@H](O)[C@H](O)[C@H]3O)c3c(c2Cl)OCC3)cc1` [Example E175, (2S,3R,4R,5S,6R)-2-(7-Chloro-6-(4-(2-hydroxypropan-2-yl)benzyl)-2,3-dihydrobenzofuran-4-yl)-6-(hydroxymethyl)tetrahydro-2H-pyran-3,4,5-triol], for which the pIC50 is 8.69.

The compound `OC[C@H]1O[C@@H](c2cc(Cc3ccc(C(F)F)cc3)c(Cl)c3c2CCO3)[C@H](O)[C@@H](O)[C@@H]1O` [Example E176, (2S,3R,4R,5S,6R)-2-(7-Chloro-6-(4-(difluoromethyl)benzyl)-2,3-dihydrobenzofuran-4-yl)-6-(hydroxymethyl)tetrahydro-2H-pyran-3,4,5-triol] had a negative-log IC50 (pIC50) of 8.94.

The compound `CC(F)(F)c1ccc(Cc2cc([C@@H]3O[C@H](CO)[C@@H](O)[C@H](O)[C@H]3O)c3c(c2Cl)OCC3)cc1` [Example E177, (2S,3R,4R,5S,6R)-2-(7-Chloro-6-(4-(1,1-difluoroethyl)benzyl)-2,3-dihydrobenzofuran-4-yl)-6-(hydroxymethyl)tetrahydro-2H-pyran-3,4,5-triol] showed a negative-log IC50 (pIC50) of 9.04. The pIC50 values of the last two compounds are within 0.2 log units of each other.

Turning to `Cc1c(Cc2ccc(C3CC3)cc2)cc([C@@H]2O[C@H](CO)[C@@H](O)[C@H](O)[C@H]2O)c2c1OCC2` [Example E178, (2S,3R,4R,5S,6R)-2-(6-(4-Cyclopropylbenzyl)-7-methyl-2,3-dihydrobenzofuran-4-yl)-6-(hydroxymethyl)tetrahydro-2H-pyran-3,4,5-triol], the pIC50 is 8.94.

Take `C#CC(C)(O)c1ccc(Cc2cc([C@@H]3O[C@H](CO)[C@@H](O)[C@H](O)[C@H]3O)c3c(c2Cl)OCC3)cc1` (stereo partly drawn) [Example E179, (2S,3R,4R,5S,6R)-2-(7-Chloro-6-(4-(2-hydroxybut-3-yn-2-yl)benzyl)-2,3-dihydrobenzofuran-4-yl)-6-(hydroxymethyl)tetrahydro-2H-pyran-3,4,5-triol]: the pIC50 is 8.28.

In the case of `C=C(C)c1ccc(Cc2cc([C@@H]3O[C@H](CO)[C@@H](O)[C@H](O)[C@H]3O)c3c(c2Cl)OCC3)cc1` [Example E180, (2S,3R,4R,5S,6R)-2-(7-Chloro-6-(4-(prop-1-en-2-yl)benzyl)-2,3-dihydrobenzofuran-4-yl)-6-(hydroxymethyl)tetrahydro-2H-pyran-3,4,5-triol], the pIC50 is 9.24.

Turning to `CC(C)c1ccc(Cc2cc([C@@H]3O[C@H](CO)[C@@H](O)[C@H](O)[C@H]3O)c3c(c2Cl)OCC3)cc1` [Example E181, (2S,3R,4R,5S,6R)-2-(7-Chloro-6-(4-isopropylbenzyl)-2,3-dihydrobenzofuran-4-yl)-6-(hydroxymethyl)tetrahydro-2H-pyran-3,4,5-triol], the pIC50 was 9.10.

Compound `C#Cc1ccc(Cc2cc([C@@H]3O[C@H](CO)[C@@H](O)[C@H](O)[C@H]3O)c3c(c2Cl)OCC3)cc1` [Example E182, (2S,3R,4R,5S,6R)-2-(7-Chloro-6-(4-ethynylbenzyl)-2,3-dihydrobenzofuran-4-yl)-6-(hydroxymethyl)tetrahydro-2H-pyran-3,4,5-triol] gave a pIC50 of 8.99.

For the compound `CNCc1ccc(Cc2cc([C@@H]3O[C@H](CO)[C@@H](O)[C@H](O)[C@H]3O)c3c(c2Cl)OCC3)cc1` [Example E183, (2S,3R,4R,5S,6R)-2-(7-Chloro-6-(4-((methylamino)methyl)benzyl)-2,3-dihydrobenzofuran-4-yl)-6-(hydroxymethyl)tetrahydro-2H-pyran-3,4,5-triol trifluoro acetic acid salt], the pIC50 was 6.91.

The compound `CN(C)Cc1ccc(Cc2cc([C@@H]3O[C@H](CO)[C@@H](O)[C@H](O)[C@H]3O)c3c(c2Cl)OCC3)cc1` [Example E184, (2S,3R,4R,5S,6R)-2-(7-Chloro-6-(4-((dimethylamino)methyl)benzyl)-2,3-dihydrobenzofuran-4-yl)-6-(hydroxymethyl)tetrahydro-2H-pyran-3,4,5-triol trifluoro acetic acid salt] showed a pIC50 of 6.79.

Regarding `OC[C@H]1O[C@@H](c2cc(Cc3ccc(CN4CC4)cc3)c(Cl)c3c2CCO3)[C@H](O)[C@@H](O)[C@@H]1O` [Example E185, (2S,3R,4R,5S,6R)-2-(6-(4-(Aziridin-1-ylmethyl)benzyl)-7-chloro-2,3-dihydrobenzofuran-4-yl)-6-(hydroxymethyl)tetrahydro-2H-pyran-3,4,5-triol trifluoro acetic acid salt], the negative logarithm of the IC50 (pIC50) is 6.79.
